{"source": "paper PMC8276662", "about": "“Synergy of alanine and gentamicin to reduce nitric oxide for elevating killing efficacy to antibiotic-resistant Vibrio alginolyticus” (Virulence, 2021)", "target": "T1, CysJ (rCysJ; NOS-like protein) (Vibrio alginolyticus, UniProt A0A2I3CBL6)", "T1 construct": "dimer by blue native PAGE", "T1 sequence (A0A2I3CBL6 1-623)": "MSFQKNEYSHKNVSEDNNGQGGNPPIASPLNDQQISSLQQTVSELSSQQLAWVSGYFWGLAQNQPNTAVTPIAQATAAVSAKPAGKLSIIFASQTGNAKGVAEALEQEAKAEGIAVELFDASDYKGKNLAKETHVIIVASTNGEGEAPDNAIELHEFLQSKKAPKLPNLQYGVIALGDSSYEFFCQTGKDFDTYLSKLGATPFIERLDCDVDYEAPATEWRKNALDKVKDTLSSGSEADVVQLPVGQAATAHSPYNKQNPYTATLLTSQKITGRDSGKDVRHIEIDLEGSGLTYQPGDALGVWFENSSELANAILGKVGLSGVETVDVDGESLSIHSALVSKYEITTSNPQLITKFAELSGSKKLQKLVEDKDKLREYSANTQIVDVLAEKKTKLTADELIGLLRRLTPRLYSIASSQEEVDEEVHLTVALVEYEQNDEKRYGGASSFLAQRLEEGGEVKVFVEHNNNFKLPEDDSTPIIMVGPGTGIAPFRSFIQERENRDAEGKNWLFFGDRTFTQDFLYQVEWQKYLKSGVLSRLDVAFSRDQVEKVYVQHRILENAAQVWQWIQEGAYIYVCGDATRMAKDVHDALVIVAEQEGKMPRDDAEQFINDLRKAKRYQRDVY", "assay": "colorimetric nitric oxide synthase activity kit, A530", "assay_type": "biochemical", "conditions": "0.5 mM L-NMMA, preincubated 30 C 2 h (as described for lysate proteins); assay 37 C 15 min; mode not stated"}
{"smiles": "CNC(=N)NCCC[C@H](N)C(=O)O", "note": "[L-NMMA]", "values": [{"measurement": "activity of NOS was reduced", "value": "When L-NMMA was used, activity of NOS was reduced (Figure 8b)."}]}
